For assay [1], the target named is T1, 5-HT2A receptor (Homo sapiens (Human), UniProt P28223). The experiment in a line: IP accumulation assay, 5-HT2A. The format is cell-based. The protocol: (§1) HEK293 cells expressing recombinant 5-HT2 receptors were added to sterile poly-D-lysine-coated 96-well microtiter plates (35,000 cells/well) and labeled with 0.6 μCi/well of [^3H]inositol in myoinositol-free DMEM for 18 h. Unincorporated [^3H]inositol was removed by aspiration and replaced with fresh myoinositol-free DMEM supplemented with LiCl (10 mM final) and pargyline (10 μM final). Serially diluted test compounds were then added and incubation was conducted for 2 h at 37° C. (5-HT2B, and 5-HT2A) and RT (5-HT2C). Incubations were then terminated by lysing cells with the addition of ice-cold 0.1 M formic acid followed by freezing at −80° C. After thawing, total [^3H]inositol phosphates were resolved from [^3H]inositol using AG1-X8 ion exchange resin (Bio-Rad) and [^3H]inositol phosphates were measured by scintillation counting using a Perkin Elmer TopCount® scintillation counter. All EC50 determinations were performed using 10 different concentrations and triplicate determinations were made at each test concentration.

Assay [2] deals with T2, 5-HT2C receptor (Homo sapiens (Human), UniProt P28335). Kind of assay: DOI radioligand binding assay, 5-HT2C. The protocol:
(§2) For the compounds of Table A, the following procedure was used. HEK293 cells stably expressing recombinant 5-HT2 receptors were harvested, suspended in ice-cold phosphate buffered saline, pH 7.4 (PBS), and then centrifuged at 48,000 g for 20 min at 4° C. The resulting cell pellet was then re-suspended in wash buffer containing 20 mM HEPES, pH 7.4 and 0.1 mM EDTA, homogenized on ice using a Brinkman Polytron, and centrifuged (48,000 g for 20 min at 4° C.). The pellet was then resuspended in 20 mM HEPES, pH 7.4, homogenized on ice, and centrifuged (48,000 g for 20 min at 4° C.). Crude membrane pellets were stored at −80° C. until used for radioligand binding assays.
(§3) For the compounds of Table A, the following procedure was used. […] Experiments comprised addition of 95 μL of assay buffer (20 mM HEPES, pH 7.4, 10 mM MgCl2), 50 μL of membranes, 50 μL of radioligand stock, and 5 μL of test compound diluted in assay buffer to 96-well microtiter plates, which were then incubated for 1 h at room temperature. Assay incubations were terminated by rapid filtration through PerkinElmer F/C filtration plates under reduced pressure using a 96-well Packard filtration apparatus, followed by washing three times with ice cold assay buffer. Plates were then dried at 45° C. for a minimum of 2 h. Finally, 25 μL of BetaScint™ scintillation cocktail was added to each well and the plates were counted in a Packard TopCount® scintillation counter. In each competition study, test compounds were dosed at ten concentrations with triplicate determinations at each test concentration.

The target of assay [3] is T2, 5-HT2C receptor. Kind of assay: IP accumulation assay, 5-HT2C. Format: cell-based. The protocol: as §1
The target in assay [4] is T1, 5-HT2A receptor. Kind of assay: DOI radioligand binding assay, 5-HT2A. Here is the method: as §2, §3
Another assay deals with 5-HT2B receptor (Homo sapiens (Human), UniProt P41595). The experiment in a line: IP accumulation assay, 5-HT2B. The format is cell-based. The protocol: as §1
[5] abbreviates: IP accumulation, HEK293 cells, 2 h at 37° C., read-out: EC50 5HT2A.
Where [6] appears, read: IP accumulation, HEK293 cells, 2 h at RT, read-out: EC50 5HT2C.
Where [7] appears, read: [125I]DOI competition, HEK293 cell membranes, read-out: DOI Binding 5HT2A.
The mark [8] stands for this setting: IP accumulation, HEK293 cells, 2 h at 37° C., read-out: EC50 5HT2B.

Data on 26 compounds can be found in patent US10836764B2, “5-HT2C receptor agonists and compositions and methods of use” (Arena Pharmaceuticals, Inc., priority 2016, dated 2020).

Where two headings read alike, the source gives them in different places. A value given as a limit tells only on which side of the number the result lay.

T1 sequence (P28223 whole entry): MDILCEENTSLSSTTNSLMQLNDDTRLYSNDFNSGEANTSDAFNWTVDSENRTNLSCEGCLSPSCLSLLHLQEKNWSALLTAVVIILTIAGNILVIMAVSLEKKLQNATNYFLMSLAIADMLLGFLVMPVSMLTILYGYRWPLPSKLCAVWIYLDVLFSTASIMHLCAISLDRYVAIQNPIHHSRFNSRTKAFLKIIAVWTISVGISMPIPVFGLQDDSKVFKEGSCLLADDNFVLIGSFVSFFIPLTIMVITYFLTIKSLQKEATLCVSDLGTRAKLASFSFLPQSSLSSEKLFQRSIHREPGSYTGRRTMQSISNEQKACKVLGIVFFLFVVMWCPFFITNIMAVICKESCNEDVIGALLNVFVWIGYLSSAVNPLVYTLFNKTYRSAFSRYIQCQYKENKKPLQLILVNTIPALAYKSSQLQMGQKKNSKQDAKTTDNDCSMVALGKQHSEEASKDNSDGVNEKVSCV
T2 sequence (P28335 33-458): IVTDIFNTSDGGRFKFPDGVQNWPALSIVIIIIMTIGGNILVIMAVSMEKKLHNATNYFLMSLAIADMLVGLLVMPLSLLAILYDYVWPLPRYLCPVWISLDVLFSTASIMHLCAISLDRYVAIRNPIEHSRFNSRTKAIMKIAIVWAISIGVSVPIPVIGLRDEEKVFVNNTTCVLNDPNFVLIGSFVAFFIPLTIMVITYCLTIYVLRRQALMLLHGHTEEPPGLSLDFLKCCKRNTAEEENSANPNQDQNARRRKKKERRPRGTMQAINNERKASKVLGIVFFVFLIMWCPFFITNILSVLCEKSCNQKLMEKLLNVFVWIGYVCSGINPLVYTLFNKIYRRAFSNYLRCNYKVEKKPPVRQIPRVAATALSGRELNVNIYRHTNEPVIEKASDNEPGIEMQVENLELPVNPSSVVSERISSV
5-HT2B receptor, sequence (P41595 whole entry): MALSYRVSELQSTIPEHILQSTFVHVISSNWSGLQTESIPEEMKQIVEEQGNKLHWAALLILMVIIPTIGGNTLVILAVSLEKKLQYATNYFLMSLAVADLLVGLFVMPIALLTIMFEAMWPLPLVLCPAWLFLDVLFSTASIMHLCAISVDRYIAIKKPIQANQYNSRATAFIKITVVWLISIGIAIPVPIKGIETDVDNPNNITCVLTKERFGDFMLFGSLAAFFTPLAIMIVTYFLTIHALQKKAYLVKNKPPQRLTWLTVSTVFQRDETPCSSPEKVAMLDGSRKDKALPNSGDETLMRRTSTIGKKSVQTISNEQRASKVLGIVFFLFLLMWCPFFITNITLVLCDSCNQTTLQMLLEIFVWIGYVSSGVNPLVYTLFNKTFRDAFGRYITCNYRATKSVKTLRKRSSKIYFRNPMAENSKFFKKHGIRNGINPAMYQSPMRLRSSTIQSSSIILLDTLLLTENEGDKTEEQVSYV

For the compound `c1ccc(Cc2ccnc3c2CC[C@@H]2CNCCN32)cc1` [Compound 106, (R)-4-benzyl-6,6a,7,8,9,10-hexahydro-5H-pyrazino[1,2-a][1,8]naphthyridine], the EC50 was 53.2 nM at 5-HT2A receptor [1] (setting [5]) and 0.116 nM at 5-HT2C receptor [3] (setting [6]). Also, the values for the Ki at 5-HT2C receptor [2] and on 5-HT2A receptor [4] (setting [7]) were 0.277 nM and 1.19 nM, respectively.
With `CCCCCc1ccnc2c1CC[C@@H]1CNCCN21` [Compound 108, (R)-4-pentyl-6,6a,7,8,9,10-hexahydro-5H-pyrazino[1,2-a][1,8]naphthyridine], the values for the Ki at 5-HT2C receptor [2] and at 5-HT2A receptor [4] (setting [7]) were 0.401 nM and 2.3 nM, respectively.
As to `CCc1ccnc2c1CC[C@@H]1CNCCN21` [Compound 110, (R)-4-ethyl-6,6a,7,8,9,10-hexahydro-5H-pyrazino[1,2-a][1,8]naphthyridine], the Ki at 5-HT2C receptor [2] is 0.562 nM; at 5-HT2A receptor [4] (setting [7]) it was 16.1 nM.
`CC(C)c1ccnc2c1CC[C@@H]1CNCCN21` [Compound 111, (R)-4-isopropyl-6,6a,7,8,9,10-hexahydro-5H-pyrazino[1,2-a][1,8]naphthyridine] returned a Ki on 5-HT2C receptor [2] of 0.874 nM.
Regarding `CCCCc1ccnc2c1CC[C@@H]1CNCCN21` [Compound 112, (R)-4-butyl-6,6a,7,8,9,10-hexahydro-5H-pyrazino[1,2-a][1,8]naphthyridine], the values for the Ki at 5-HT2C receptor [2] and on 5-HT2A receptor [4] (setting [7]) were 0.5 nM and 10.6 nM, respectively.
As for `CCCc1ccnc2c1CC[C@@H]1CNCCN21` [Compound 113, (R)-4-propyl-6,6a,7,8,9,10-hexahydro-5H-pyrazino[1,2-a][1,8]naphthyridine], the Ki was 0.162 nM on 5-HT2C receptor [2] and 6.85 nM on 5-HT2A receptor [4] (setting [7]). A half-maximal response on 5-HT2C receptor [3] (EC50) required 0.0656 nM.
On to `Fc1cccc(Cc2ccnc3c2CC[C@@H]2CNCCN32)c1` [Compound 115, (R)-4-(3-fluorobenzyl)-6,6a,7,8,9,10-hexahydro-5H-pyrazino[1,2-a][1,8]naphthyridine], for which the results for the EC50 at 5-HT2A receptor [1] (setting [5]) and at 5-HT2C receptor [3] (setting [6]) were 37.2 nM and 0.19 nM, respectively. The Ki came out at 0.195 nM at 5-HT2C receptor [2] and 0.506 nM at 5-HT2A receptor [4].
Take `CCCC(=O)Nc1ccnc2c1CC[C@@H]1CNCCN21` [Compound 125, (R)-N-(6,6a,7,8,9,10-hexahydro-5H-pyrazino[1,2-a][1,8]naphthyridin-4-yl)butyramide]: the EC50 at 5-HT2A receptor [1] was at least 100000 nM; on 5-HT2C receptor [3] (setting [6]), 100000 nM; at 5-HT2B receptor (setting [8]), at least 100000 nM.
Regarding `c1cc(C2CCCCC2)c2c(n1)N1CCNC[C@H]1CC2` [Compound 127, (R)-4-cyclohexyl-6,6a,7,8,9,10-hexahydro-5H-pyrazino[1,2-a][1,8]naphthyridine], the concentration giving a half-maximal response (EC50) was 9070 nM on 5-HT2A receptor [1], 1510 nM at 5-HT2C receptor [3] (setting [6]) and 919 nM at 5-HT2B receptor (setting [8]).
As to `O=C(Nc1ccnc2c1CC[C@@H]1CNCCN21)N1CCCC1` [Compound 131, (R)-N-(6,6a,7,8,9,10-hexahydro-5H-pyrazino[1,2-a][1,8]naphthyridin-4-yl)pyrrolidine-1-carboxamide], the EC50 is at least 100000 nM on 5-HT2A receptor [1], 100000 nM on 5-HT2C receptor [3] (setting [6]) and at least 100000 nM at 5-HT2B receptor (setting [8]).
For `FC(F)(F)c1ccccc1-c1ccnc2c1CC[C@@H]1CNCCN21` [Compound 134, (R)-(2-(trifluoromethyl)phenyl)-6,6a,7,8,9,10-hexahydro-5H-pyrazino[1,2-a][1,8]naphthyridine], the concentration giving a half-maximal response (EC50) at 5-HT2A receptor [1] was at least 100000 nM; on 5-HT2C receptor [3] (setting [6]) it was 5610 nM; on 5-HT2B receptor (setting [8]), 1730 nM.
The like results for `COc1ccc(-c2ccnc3c2CC[C@@H]2CNCCN32)cc1` [Compound 135, (R)-4-(4-methoxyphenyl)-6,6a,7,8,9,10-hexahydro-5H-pyrazino[1,2-a][1,8]naphthyridine] were, in that order, at least 100000 nM, 5410 nM and at least 100000 nM.
As for `O=C(Nc1ccnc2c1CC[C@@H]1CNCCN21)c1cccc(F)c1F` [Compound 138, (R)-2,3-difluoro-N-(6,6a,7,8,9,10-hexahydro-5H-pyrazino[1,2-a][1,8]naphthyridin-4-yl)benzamide], the EC50 at 5-HT2A receptor [1] (setting [5]) is at least 100000 nM; at 5-HT2C receptor [3] (setting [6]) it was 5820 nM; at 5-HT2B receptor (setting [8]), at least 100000 nM.
Regarding `O=C(Nc1ccnc2c1CC[C@@H]1CNCCN21)c1ccccc1` [Compound 139, (R)-N-(6,6a,7,8,9,10-hexahydro-5H-pyrazino[1,2-a][1,8]naphthyridin-4-yl)benzamide], the EC50 was at least 100000 nM at 5-HT2A receptor [1], 100000 nM on 5-HT2C receptor [3] (setting [6]) and at least 100000 nM at 5-HT2B receptor (setting [8]).
As for `O=C(NCC(F)F)c1ccnc2c1CC[C@@H]1CNCCN21` [Compound 140, (R)-N-(2,2-difluoroethyl)-6,6a,7,8,9,10-hexahydro-5H-pyrazino[1,2-a][1,8]naphthyridine-4-carboxamide], the results for the concentration giving a half-maximal response (EC50) on 5-HT2A receptor [1], at 5-HT2C receptor [3] (setting [6]) and at 5-HT2B receptor (setting [8]) were at least 100000 nM, 4620 nM and at least 100000 nM, respectively.
As for `O=C(Nc1ccnc2c1CC[C@@H]1CNCCN21)C1CC1` [Compound 141, (R)-N-(6,6a,7,8,9,10-hexahydro-5H-pyrazino[1,2-a][1,8]naphthyridin-4-yl)cyclopropanecarboxamide], the EC50 at 5-HT2A receptor [1] is at least 100000 nM; at 5-HT2C receptor [3] (setting [6]), 100000 nM; on 5-HT2B receptor (setting [8]), at least 100000 nM.
On to `C/C=C/Cc1ccnc2c1CC[C@@H]1CNCCN21` [Compound 144, (R,E)-4-(but-2-en-1-yl)-6,6a,7,8,9,10-hexahydro-5H-pyrazino[1,2-a][1,8]naphthyridine], for which the figures for the Ki at 5-HT2C receptor [2] and on 5-HT2A receptor [4] (setting [7]) were 0.548 nM and 5.01 nM, respectively.
Regarding `c1cnc2c(c1)CC[C@@H]1CNCCN21` [Compound 148, (R)-6,6a,7,8,9,10-hexahydro-5H-pyrazino[1,2-a][1,8]naphthyridine], the 50% effective concentration (EC50) stood at 100000 nM on 5-HT2A receptor [1] (setting [5]), 93.4 nM at 5-HT2C receptor [3] (setting [6]) and 61.2 nM on 5-HT2B receptor (setting [8]).
For `Clc1ccnc2c1CC[C@@H]1CNCCN21` [Compound 150, (R)-4-chloro-6,6a,7,8,9,10-hexahydro-5H-pyrazino[1,2-a][1,8]naphthyridine], the 50% effective concentration (EC50) stood at 1330 nM on 5-HT2A receptor [1], 5.19 nM on 5-HT2C receptor [3] and 45.4 nM on 5-HT2B receptor.
The like results for `c1cc(C2CC2)c2c(n1)N1CCNC[C@H]1CC2` [Compound 151, (R)-4-cyclopropyl-6,6a,7,8,9,10-hexahydro-5H-pyrazino[1,2-a][1,8]naphthyridine] were, in that order, 435 nM, 6.22 nM and 15 nM.
As for `c1cc2c(cn1)N1CCNC[C@H]1CC2` [Compound 153, (R)-6,6a,7,8,9,10-hexahydro-5H-pyrazino[1,2-a][1,7]naphthyridine], the EC50 at 5-HT2A receptor [1] (setting [5]) turned out to be 100000 nM; on 5-HT2C receptor [3] (setting [6]), 329 nM; at 5-HT2B receptor (setting [8]), 779 nM.
For the compound `c1cc2c(c(CC3CCC3)n1)CC[C@@H]1CNCCN21` [Compound 154, (R)-7-(cyclobutylmethyl)-2,3,4,4a,5,6-hexahydro-1H-pyrazino[1,2-a][1,6]naphthyridine], the EC50 on 5-HT2A receptor [1] was at least 100000 nM; on 5-HT2C receptor [3], 5580 nM; on 5-HT2B receptor it was at least 100000 nM.
Regarding `c1cc2c(cn1)CC[C@@H]1CNCCN21` [Compound 155, (R)-2,3,4,4a,5,6-hexahydro-1H-pyrazino[1,2-a][1,6]naphthyridine], the EC50 at 5-HT2A receptor [1] was at least 100000 nM; at 5-HT2C receptor [3], 100000 nM; at 5-HT2B receptor, at least 100000 nM.
As for `CCc1c(CC2CCCCC2)cnc2c1CC[C@@H]1CNCCN21` [Compound 164, (R)-3-(cyclohexylmethyl)-4-ethyl-6,6a,7,8,9,10-hexahydro-5H-pyrazino[1,2-a][1,8]naphthyridine], the Ki on 5-HT2C receptor [2] (read-out: DOI Binding 5HT2C) was found to be 233 nM; on 5-HT2A receptor [4] (setting [7]), 703 nM.
The matching figures for `CCc1c(CC2CCCCO2)cnc2c1CC[C@@H]1CNCCN21` (stereo partly drawn) [Compound 165, (6aR)-4-ethyl-3-((tetrahydro-2H-pyran-2-yl)methyl)-6,6a,7,8,9,10-hexahydro-5H-pyrazino[1,2-a][1,8]naphthyridine]: 570 nM and 890 nM.
Take `c1cc(CC2CCCC2)c2c(n1)N1CCNC[C@H]1CC2` [Compound 170, (R)-4-(cyclopentylmethyl)-6,6a,7,8,9,10-hexahydro-5H-pyrazino[1,2-a][1,8]naphthyridine]: the Ki at 5-HT2C receptor [2] was 0.79 nM.
